Test results: patent US8569315B2, “Synergistic antimicrobial composition” (priority 2009, dated 2013)

Key:
Type in all cases: cell-based
Calothrix parientina = test: Algal efficacy testing, modified ASTM 5589, paint film; conditions: for Total conc: total biocide in paint chosen as minimum inhibitory concentration, dry film; for Total conc / % inhibition: 3 weeks
Description: (§1) Sample preparation: Samples of white acrylic latex paint free of biocides were prepared in 50 ml aliquots. Each biocide was post added to give the necessary active ingredient concentration in the paint. The total biocides concentrations tested were 750, 1500, 2500 and 5000 ppm. After biocides addition, each sample was hand mixed for a minimum of 30 sec, followed by a 3 min run on the paint shaker (RED DEVIL). Each of the paint samples as well as a control sample (containing no biocide) were used to prepare films on black plastic-vinyl chloride/acetate copolymer panels (LENETA, Mahwah, N.J.) using a 3 mil bird bar applicator. The panels were thoroughly dried for 5 days avoiding direct exposure to sunlight. Square discs (15 mm^2) were cut out from each panel and were used as the substrate for fungal and algal efficacy tests. This sample size allowed for an agar border when the sample disc was placed into the well of the test plate.
(§2) The appropriate media (BOLD'S 3N for Chlorophytes, BG-11 for Cyanobacteria, and PDA for fungi) were used to support microbial growth. The test plates were maintained at room temp (25° C.-26° C.), in a cycled light-dark environment, for 3 weeks for algae. Plates for fungal challenge tests were maintained at 30 C for three weeks. At the end of incubation period the samples were scored for percent area covered by visible microbial growth.
(§3) ASTM 5589 is a standard accelerated test method for determining resistance of various coatings (including paints) to algal defacement. To accommodate for high-throughput screening, this method was scaled down from petri plates to 12-well plates. A single coupon was placed with a pair of sterile forceps at the center of the agar plug (on top) with the painted surface facing upwards. Each well was inoculated with 150 μl of organism (1×10^6 cfu/ml) making sure that the whole surface (paint film as well as the agar surrounding it) was evenly covered. The plates were incubated at room temp (25° C.-26° C.) with cyclic exposure to light (OTT-Lite model # OTL4012P, 40 Watt, 26 KLumen) and dark phases, for a period of three weeks. The total area covered was evaluated at the end of each week after the second week according to percent area covered in 5% increments. While rating the plates, notations were made for zones of inhibition.
(§4) The SI is calculated based on F. C. Kull et.

[1] = system: Chlorella sp. UTEX + Chlorella kessleri; test: as above; conditions: for Total conc: total biocide in paint chosen as minimum inhibitory concentration, dry film; for Total conc / % inhibition: 3 weeks
Description: as §1, §2, §3, §4

Gleocapsa sp. = test: as above; conditions: for Total conc: total biocide in paint chosen as minimum inhibitory concentration, dry film; for Total conc / % inhibition: 3 weeks
Description: as §1, §2, §3, §4

Oscillatoria sp. = test: as above; conditions: for Total conc: total biocide in paint chosen as minimum inhibitory concentration, dry film; for Total conc / % inhibition: 3 weeks
Description: as §1, §2, §3, §4

[2] = system: Trentepohlia aurea + Trentepohlia odorata; test: as above; conditions: for Total conc: total biocide in paint chosen as minimum inhibitory concentration, dry film; for Total conc / % inhibition: 3 weeks; for % inhibition: total conc 1500 ppm in paint
Description: as §1, §2, §3, §4

Nostoc commune = test: as above; conditions: for Total conc: total biocide in paint chosen as minimum inhibitory concentration, dry film; for Total conc / % inhibition: 3 weeks
Description: as §1, §2, §3, §4

Cladosporium herbarum = test: Fungal efficacy testing, modified ASTM 5590, paint film; conditions: for Total conc: total biocide in paint chosen as minimum inhibitory concentration, dry film; for Total conc / % inhibition: 3 weeks
Description: as §1, §2
(§5) ASTM 5590 is a standard accelerated test method for determining resistance of various coatings (including paints) to fungal defacement. To accommodate for high-throughput screening, this method was scaled down from petri plates to 12-well plates. To set up the test, an agar plug was placed at the bottom of each well of the sterile 12-well plate. A single coupon was placed with a pair of sterile forceps at the center of the agar plug (on top) with the painted surface facing upwards. Each well was inoculated with 150 μl of organism (1×10^6 cfu/ml) making sure that the whole surface (paint film as well as the agar surrounding it) was evenly covered. The plates were incubated at 30° C. in presence of moisture, for a period of three weeks. The total percent area covered was evaluated and recorded at the end of each week after the 2nd week and recorded in increments of 5%.
as §4

Aspergillus niger = test: as above; conditions: for Total conc: total biocide in paint chosen as minimum inhibitory concentration, dry film; for Total conc / % inhibition: 3 weeks; for % inhibition: total conc 1500 ppm in paint
Description: as §1, §2, §5, §4

Alternaria alternata = test: as above; conditions: for Total conc: total biocide in paint chosen as minimum inhibitory concentration, dry film; for Total conc / % inhibition: 3 weeks
Description: as §1, §2, §5, §4

Trichoderma viride = test: as above; conditions: for Total conc: total biocide in paint chosen as minimum inhibitory concentration, dry film; for Total conc / % inhibition: 3 weeks
Description: as §1, §2, §5, §4

Penicillium funiculosum = test: as above; conditions: for Total conc: total biocide in paint chosen as minimum inhibitory concentration, dry film; for Total conc / % inhibition: 3 weeks
Description: as §1, §2, §5, §4

Aureobasidium pullulans = test: as above; conditions: for Total conc: total biocide in paint chosen as minimum inhibitory concentration, dry film; for Total conc / % inhibition: 3 weeks
Description: as §1, §2, §5, §4

Stachybotris chartarum = test: as above; conditions: for Total conc: total biocide in paint chosen as minimum inhibitory concentration, dry film
Description: as §1, §2, §5, §4

[3] = total conc 750 ppm in paint, Table 3
[4] = total conc 1500 ppm in paint, Table 3
[5] = total conc 2500 ppm in paint, Table 3
[6] = total conc 2500 ppm in paint, Table 4
[7] = total conc 750 ppm in paint, Table 4
[8] = total conc 1500 ppm in paint, Table 4
[9] = total conc 1500 ppm in paint, Table 1
[10] = total conc 1500 ppm in paint, Table 2

`CCOc1nc(F)cc2nc(S(=O)(=O)Nc3c(Cl)cccc3Cl)nn12` [Diclosulam] was tested, and the Total conc (Calothrix parientina; Table 3) was 750 ppm, the “% inhibition” value (Calothrix parientina; [3]) was 80% and the Total conc ([1]; Table 3) was 750 ppm. The “% inhibition” value [1, 3] was 75%, the Total conc (Gleocapsa sp.; Table 3) was 1500 ppm and the “% inhibition” value (Gleocapsa sp.; [4]) was 60%. For the same compound, the Total conc (Oscillatoria sp.; Table 3) was 750 ppm, the “% inhibition” value (Oscillatoria sp.; [3]) was 80% and the Total conc ([2]; Table 3) was 1500 ppm. For the same compound, the “% inhibition” value ([2]; Table 3) was 80%, the Total conc (Nostoc commune; Table 3) was 2500 ppm and the “% inhibition” value (Nostoc commune; [5]) was 75%. The Total conc (Cladosporium herbarum; Table 4) was 2500 ppm, the “% inhibition” value (Cladosporium herbarum; [6]) was 80% and the Total conc (Aspergillus niger; Table 4) was 1500 ppm. For the same compound, the “% inhibition” value (Aspergillus niger; Table 4) was 80%, the Total conc (Alternaria alternata; Table 4) was 2500 ppm and the “% inhibition” value (Alternaria alternata; [6]) was 0%. The Total conc (Trichoderma viride; Table 4) was 750 ppm, the “% inhibition” value (Trichoderma viride; [7]) was 80% and the Total conc (Penicillium funiculosum; Table 4) was 2500 ppm. The “% inhibition” value (Penicillium funiculosum; [6]) was 45%, the Total conc (Aureobasidium pullulans; Table 4) was 1500 ppm and the “% inhibition” value (Aureobasidium pullulans; [8]) was 35%.
With `CCCCNC(=O)OCC#CI` [IPBC, 3-iodo-2-propynyl-butylcarbamate] the Total conc (Calothrix parientina; Table 1) was 1500 ppm, the Total conc (Calothrix parientina; Table 3) was 750 ppm and the “% inhibition” value (Calothrix parientina; [3]) was 80%. The “% inhibition” value (Calothrix parientina; [9]) was 80%, the Total conc ([1]; Table 1) was 2500 ppm and the Total conc ([1]; Table 3) was 2500 ppm. For the same compound, the “% inhibition” value ([1]; total conc 2500 ppm in paint, Table 1) was 80%, the “% inhibition” value [1, 5] was 80% and the Total conc (Gleocapsa sp.; Table 1) was 750 ppm. The Total conc (Gleocapsa sp.; Table 3) was 2500 ppm, the “% inhibition” value (Gleocapsa sp.; total conc 750 ppm in paint, Table 1) was 80% and the “% inhibition” value (Gleocapsa sp.; [5]) was 50%. The Total conc (Oscillatoria sp.; Table 1) was 1500 ppm, the Total conc (Oscillatoria sp.; Table 3) was 2500 ppm and the “% inhibition” value (Oscillatoria sp.; [9]) was 80%. For the same compound, the “% inhibition” value (Oscillatoria sp.; [5]) was 80%, the Total conc ([2]; Table 1) was 1500 ppm and the Total conc ([2]; Table 3) was 1500 ppm. The “% inhibition” value ([2]; Table 1) was 80%, the “% inhibition” value ([2]; Table 3) was 80% and the Total conc (Nostoc commune; Table 1) was 1500 ppm. The Total conc (Nostoc commune; Table 3) was 1500 ppm, the “% inhibition” value (Nostoc commune; [9]) was 80% and the “% inhibition” value (Nostoc commune; [4]) was 80%. The Total conc (Cladosporium herbarum; Table 2) was 1500 ppm, the Total conc (Cladosporium herbarum; Table 4) was 1500 ppm and the “% inhibition” value (Cladosporium herbarum; [10]) was 90%. For the same compound, the “% inhibition” value (Cladosporium herbarum; [8]) was 80%, the Total conc (Aspergillus niger; Table 2) was 1500 ppm and the Total conc (Aspergillus niger; Table 4) was 1500 ppm. For the same compound, the “% inhibition” value (Aspergillus niger; Table 2) was 60%, the “% inhibition” value (Aspergillus niger; Table 4) was 85% and the Total conc (Alternaria alternata; Table 2) was 1500 ppm. The Total conc (Alternaria alternata; Table 4) was 2500 ppm, the “% inhibition” value (Alternaria alternata; [10]) was 85% and the “% inhibition” value (Alternaria alternata; [6]) was 50%. The Total conc (Trichoderma viride; Table 2) was 1500 ppm, the Total conc (Trichoderma viride; Table 4) was 1500 ppm and the “% inhibition” value (Trichoderma viride; [10]) was 75%. The “% inhibition” value (Trichoderma viride; [8]) was 85%, the Total conc (Penicillium funiculosum; Table 2) was 1500 ppm and the Total conc (Penicillium funiculosum; Table 4) was 1500 ppm. For the same compound, the “% inhibition” value (Penicillium funiculosum; [10]) was 90%, the “% inhibition” value (Penicillium funiculosum; [8]) was 70% and the Total conc (Aureobasidium pullulans; Table 2) was 1500 ppm. The Total conc (Aureobasidium pullulans; Table 4) was 750 ppm, the “% inhibition” value (Aureobasidium pullulans; [7]) was 60% and the “% inhibition” value (Aureobasidium pullulans; [10]) was 90%. The Total conc (Stachybotris chartarum; 3 weeks, Table 2) was 2500 ppm and the “% inhibition” value (Stachybotris chartarum; total conc 2500 ppm in paint, 3 weeks, Table 2) was 65%.
In the case of `Cc1ccn2nc(S(=O)(=O)Nc3c(F)cccc3F)nc2n1` [Flumetsulam], the inhibition at 2500 ppm (Calothrix parientina; 504 h) was 90%, the Total conc (Calothrix parientina; Table 1) was 2500 ppm and the inhibition at 2500 ppm ([1]; 504 h) was 80%. The Total conc ([1]; Table 1) was 2500 ppm, the inhibition at 1500 ppm (Gleocapsa sp.; 504 h) was 90% and the Total conc (Gleocapsa sp.; Table 1) was 1500 ppm. The inhibition at 1500 ppm (Oscillatoria sp.; 504 h) was 80%, the Total conc (Oscillatoria sp.; Table 1) was 1500 ppm and the inhibition at 1500 ppm ([2]; 504 h) was 85%. For the same compound, the Total conc ([2]; Table 1) was 1500 ppm, the inhibition at 1500 ppm (Nostoc commune; Nostoc commune, 504 h) was 85% and the Total conc (Nostoc commune; Table 1) was 1500 ppm. The inhibition at 1500 ppm (Cladosporium herbarum; Cladosporium herbarum, 504 h) was 85%, the Total conc (Cladosporium herbarum; Table 2) was 1500 ppm and the inhibition at 2500 ppm (Aspergillus niger; Aspergillus niger, 504 h) was 40%. The Total conc (Aspergillus niger; Table 2) was 2500 ppm, the inhibition at 2500 ppm (Alternaria alternata; Alternaria alternata, 504 h) was 90% and the Total conc (Alternaria alternata; Table 2) was 2500 ppm. The inhibition at 2500 ppm (Trichoderma viride; Trichoderma viride, 504 h) was 70%, the Total conc (Trichoderma viride; Table 2) was 2500 ppm and the inhibition at 1500 ppm (Penicillium funiculosum; Talaromyces funiculosus, 504 h) was 80%. For the same compound, the Total conc (Penicillium funiculosum; Table 2) was 1500 ppm, the inhibition at 2500 ppm (Aureobasidium pullulans; Aureobasidium pullulans, 504 h) was 90% and the Total conc (Aureobasidium pullulans; Table 2) was 2500 ppm. It also gave an inhibition at 2500 ppm (Stachybotris chartarum; 504 h) of 70% and a Total conc (Stachybotris chartarum; 3 weeks, Table 2) of 2500 ppm.
